Reference: US20110118350A1, “COMPOSITION FOR PREVENTING CARDIOVASCULAR EVENT IN HIGH-RISK PATIENT” (MOCHIDA PHARMACEUTICAL CO., LTD., priority 2008, published 2011)

Experiment: Plasma OA/SA ratio in DELIS trial patients (fatty acid composition of plasma)
Assay type: in vivo, human
Settings: for OA/SA ratio in plasma, Average: statin base drug
From the text: The ratio of oleic acid (OA) to stearic acid (SA) in plasma can be calculated by collecting blood from a patient and measuring the levels of the individual fatty acids such as OA and SA or the ratio of the individual fatty acids in the total fatty acids by, for example, gas chromatography. The OA/SA ratio can be also calculated from the individual fatty acid levels obtained by performing a clinical test item, that is, fractionation of fatty acids in total lipids which can be performed by, for example, SRL, Inc. The measurement method and calculation method are not particularly limited. The fatty acid fractionation into 24 fractions is a testing method which involves fractionating fatty acids including unsaturated fatty acids into specific 24 fractions and quantitatively determining the fractions by gas chromatography. More specifically, the plasma fatty acids are extracted by the method of, for example, Folch et al. (Folch J. et al., J. Biol. Chem. 226, 497-509 (1957)). It is possible to use tricosanoic acid (C23:0) as an internal standard, to convert each fatty acid into a methyl ester by addition of boron trifluoride and methanol, and to quantitatively determine the methyl ester of each fatty acid by measurement using a gas chromatograph such as SHIMAZU GC-17A (Shimadzu Corporation) and a capillary column such as BPX70 (with an internal diameter of 0.25 mm and a length of 30 m; SGE International Ltd.). However, this is not the sole method of the invention. This trial corresponds to a partial analysis of the results obtained in DELIS (Japan EPA Lipid Intervention Study) which is a large scale clinical trial of high purity EPA preparation which was presented in the American College of Cardiology 2005 Annual Meeting (for general information on DELIS, see Lancet, vol. 369, pp. 1090-1098 (2007)). […]

In the case of `CC/C=C\C/C=C\C/C=C\C/C=C\C/C=C\CCCC(=O)OCC` [EPA-E, ethyl icosapentate], the “change of OA/SA ratio in plasma” value (after the administration of EPA-E) is reported as “significant decrease”, the “OA/SA ratio in plasma, Average” value (before start of trial) is reported as 2.96 and the “OA/SA ratio in plasma, Average” value (during whole observation period, Epadel 600 mg 3 times a day oral) is reported as 2.78.
